Measurements taken from PMC6150212, “New Biflavonoids with α-Glucosidase and Pancreatic Lipase Inhibitory Activities from Boesenbergia rotunda” (Molecules : A Journal of Synthetic Chemistry and Natural …, 2017).
Like-named read-outs stand apart in the source and are kept apart here.

Tests used:
[1] = molecular target: Yeast α-glucosidase enzyme; assay: α-Glucosidase inhibitory activity assay (PNPG hydrolysis); assay type: biochemical
Method: (§1) Optical rotations were obtained with a Perkin-Elmer 341 polarimeter (Boston, MA, USA). UV spectra were measured on a Milton Roy Spectronic 300 Array spectrophotometer, and IR was recorded on a Perkin-Elmer FT-IR 1760x spectrophotometer (Boston, MA, USA). High-resolution electrospray ionization mass spectra (HR-ESI-MS) were recorded with a Bruker micro TOF mass spectrometer (Billerica, MA, USA). NMR spectra were obtained with a Bruker Avance DPX-300 FT-NMR spectrometer (Billerica, MA, USA). Vacuum liquid chromatography (VLC) and column chromatography (CC) were performed on silica gel 60 (Merck, 70–230 µm, Darmstadt, Germany), silica gel 60 (Merck, […]) or Sephadex LH-20 (Pharmacia, Piscataway, NJ, USA). Yeast α-glucosidase enzyme, p-nitrophenol-α-D-glucopyranoside, pancreatic lipase, and 4-methylumbelliferyl oleate were purchased from Sigma Chemical, Inc. (St. Louis, MO, USA), and acarbose from Fluka Chemical (Buchs, Switzerland).
(§2) The assay was based on the capacity of the sample to inhibit the hydrolysis of p-nitrophenyl-α-D-glucoside (PNPG) by α-glucosidase to release p-nitrophenol (PNP), a yellow color agent that can be monitored at 405 nm. Briefly, 10 μL of sample solution and 40 μL of 0.1 unit/mL α-glucosidase were incubated at 37 °C for 10 min. Then, 50 μL of 2 mM PNPG was added, and the mixture was further incubated at 37 °C for 20 min. One hundred microliters of 1 mM Na2CO3 was added, and the progress of the enzyme inhibition was monitored by measuring the absorbance at 405 nm. Acarbose was used as a positive control.

[2] = system: Yeast α-glucosidase enzyme; assay: Kinetic study of α-glucosidase inhibition (Lineweaver-Burk and secondary plots); assay type: biochemical; details: for Mode of inhibition of α-glucosidase / Km: Lineweaver-Burk plot; for Ki: from secondary plot, read-out: α-Glucosidase inhibition constant (Ki); for Km: PNPG substrate, read-out: Michaelis-Menten constant, Km (x-axis intersection), α-glucosidase
Method: as §2
(§3) An enzyme kinetic analysis was performed based on the α-glucosidase or lipase inhibition assay as described above. The PNPG concentrations varied from 1 to 4 mM, and the 4-MUO concentrations varied from 0.063 to 1 mM in the absence or presence of the test compounds for kinetic assays of α-glucosidase and lipase, respectively. The inhibition mode was determined by double-reciprocal Lineweaver-Burk plot (1/V vs. 1/[S]). In order to estimate the Ki value, slopes of double-reciprocal lines were used to construct a secondary plot, and Ki was calculated from the line equation of the plot.

[3] = molecular target: T1, lipase from porcine pancreas (Type II) (Sus scrofa, UniProt P00591); assay: Lipase inhibitory activity assay (4MUO substrate); assay type: biochemical
T1 construct: lipase from porcine pancreas (Type II); purchased Sigma Chemical, Inc. (St. Louis, MO, USA); host or cells: porcine pancreas
T1 sequence (P00591 1-450): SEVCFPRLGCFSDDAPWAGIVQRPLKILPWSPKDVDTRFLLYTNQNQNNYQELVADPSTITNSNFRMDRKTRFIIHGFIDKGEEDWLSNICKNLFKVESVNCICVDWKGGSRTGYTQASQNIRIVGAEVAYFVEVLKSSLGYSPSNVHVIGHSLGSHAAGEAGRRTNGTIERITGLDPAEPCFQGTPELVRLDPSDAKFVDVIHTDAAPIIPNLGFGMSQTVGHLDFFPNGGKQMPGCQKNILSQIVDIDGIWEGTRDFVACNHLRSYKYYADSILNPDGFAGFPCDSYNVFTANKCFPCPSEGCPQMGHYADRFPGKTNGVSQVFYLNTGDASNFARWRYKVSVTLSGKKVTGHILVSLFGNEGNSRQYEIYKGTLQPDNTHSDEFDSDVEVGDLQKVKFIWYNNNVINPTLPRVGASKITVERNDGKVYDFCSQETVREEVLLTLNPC
Method: as §1
(§4) The lipase inhibitory activity was assessed by measuring the amount of 4-methylumbelliferone (4MU), using 4-methylumbelliferyl oleate (4MUO) as substrate. The assay was modified from a previously reported method. In brief, 25 μL of a blank, plant extract vehicle, or a sample solution and 50 μL of 0.5 mM 4MUO in buffer consisting of 13 mM Tris-HCl, 150 mM NaCl, and 1.3 mM CaCl2 (pH 8.0), were mixed in 96-well microtiter plate. Twenty-five microliters of lipase from porcine pancreas (Type II), prepared at 0.5 mg/mL in the same buffer, was then added to start the enzyme reaction. After incubation at room temperature for 30 min, 100 μL of 0.1 M sodium citrate (pH 4.2) was added to stop the reaction. Fluorescence, corresponding to released 4MU, was then measured with excitation and emission wavelengths of 355 and 460 nm, respectively.

[4] = system: high-fat-diet (HFD)-induced obesity; set-up: method as in PMID 22312299, PMID 21320266; details: mice; by activating AMPK; cited from earlier work
[5] = molecular target: T1, lipase from porcine pancreas (Type II); assay: Kinetic study of lipase inhibition (Lineweaver-Burk and secondary plots); assay type: biochemical; details: for Mode of inhibition of lipase: Lineweaver-Burk plot; for Ki: from secondary plot
Method: as §4, §3

Compound	IC50 [1]	α-Glucosidase % Inhibition (at 20 µg/mL) [1]	inhibition at 20 µg/mL [3]	other results
C[C@H]1O[C@H](O[C@H]2[C@H](O)[C@@H](O)[C@@H](O[C@H]3[C@H](O)[C@@H](O)C(O)O[C@@H]3CO)O[C@@H]2CO)[C@H](O)[C@@H](O)[C@@H]1N[C@H]1C=C(CO)[C@@H](O)[C@H](O)[C@H]1O (stereo partly shown) [Acarbose, reference compound]	1160 ± 23 µM	–	–	IC50 ([1]; rounded value): 1200 µM; Mode of inhibition of α-glucosidase [2]: competitive; Ki [2]: 167 µM
COc1cc(O)c2c(c1)O[C@H](c1ccccc1)CC2=O [Compound 1, Pinostrobin]	–	10.0 ± 2.9%	7.9 ± 0.8%	–
CC(C)=CCC/C(C)=C/CO [Compound 2, Geraniol]	–	9.6 ± 4.0%	30.6 ± 2%	–
COc1cc(O)c(C(=O)[C@@H]2[C@H](CC=C(C)C)C(C)=CC[C@H]2c2ccccc2)c(O)c1 [Compound 3, Panduratin A]	12.7 ± 1.3 µM	94.7 ± 0.4%	72.3 ± 0.1%	Effect on high-fat-diet (HFD)-induced obesity [4]: attenuate high-fat-diet (HFD)-induced obesity; IC50 [3]: 17.1 ± 3.7 µM
COc1cc(O)cc(O)c1C(=O)C1C(CC=C(C)C)C(C)=CCC1c1ccccc1 (stereo not shown) [Compound 4, Isopanduratin A]	7.5 ± 0.6 µM	97.8 ± 0.8%	75.2 ± 1.1%	Mode of inhibition of lipase [5]: mixed-type; Ki [5]: 5.79 µM; IC50 [3]: 15.1 ± 3.3 µM
O=C1C[C@@H](c2ccccc2)Oc2cc(O)cc(O)c21 [Compound 5, Pinocembrin]	–	19.8 ± 0.1%	3.7 ± 1.3%	–
COc1cc(O)cc(O)c1C(=O)/C=C/c1ccccc1 [Compound 6, Cardamonin]	–	19.7 ± 0.9%	7.7 ± 1.9%	–
CC(C)=CC[C@@H]1C(C)=CC[C@@H](c2ccccc2)[C@@H]1C(=O)c1c(O)cc(O)cc1O [Compound 7, Hydroxypanduratin A]	4.6 ± 0.4 µM	98.5 ± 0.4%	49.3 ± 2.7%	Mode of inhibition of α-glucosidase [2]: non-competitive; Km [2]: 460 µM; Ki [2]: 4.03 µM
COc1cc(/C=C/c2ccccc2)oc(=O)c1 [Compound 8, 5,6-Dehydrokawain]	–	9.5 ± 2.5%	33.7 ± 1%	–
CCCCCCCCCCC[C@@H](C[C@@H]1OC(=O)[C@H]1CCCCCC)OC(=O)[C@H](CC(C)C)NC=O [Orlistat, reference compound]	–	–	–	Mode of inhibition of lipase [5]: competitive
Alpinetin [Compound 11]	–	7.0 ± 2.0%	–	Lipase % Inhibition (at 20 µg/mL) ([3]; at 20 µg/mL): 8.0 ± 1.9%

Second part, led by results:

IC50 [1]	α-Glucosidase % Inhibition (at 20 µg/mL) [1]	inhibition at 20 µg/mL [3]	Compound	other results
2.4 ± 0.4 µM	100.0 ± 0.0%	69.1 ± 1.6%	COc1cc(O)c(C(=O)CC(c2ccccc2)c2c(O)cc3c(c2O)C(=O)CC(c2ccccc2)O3)c(O)c1 (stereo not shown) [Compound 9, rotundaflavanochalcone]	Mode of inhibition of lipase [5]: non-competitive; Ki [5]: 3.55 µM; Mode of inhibition of α-glucosidase [2]: non-competitive; Km [2]: 470 µM; Ki [2]: 7.19 µM; IC50 [3]: 25.8 ± 2.6 µM
32 ± 2.2 µM	88.1 ± 0.9%	48.7 ± 3.5%	O=C(CCc1ccccc1)c1c(O)cc(O)cc1O [Compound 10, 2′,4′,6′-Trihydroxydihydrochalcone]	–
3.4 ± 0.9 µM	100.0 ± 0.2%	67.8 ± 1.3%	COc1cc(O)cc(O)c1C(=O)CC(c1ccccc1)c1c(O)cc2c(c1O)C(=O)CC(c1ccccc1)O2 (stereo not shown) [Compound 12, iso-rotundaflavanochalcone]	IC50 [3]: 30.1 ± 2.3 µM
1.3 ± 0.2 µM	100.0 ± 0.1%	80.5 ± 0.6%	O=C(CC(c1ccccc1)c1c(O)cc2c(c1O)C(=O)CC(c1ccccc1)O2)c1c(O)cc(O)cc1O (stereo not shown) [Compound 13, de-O-methyl rotundaflavanochalcone]	IC50 [3]: 10.6 ± 1.2 µM
–	97.1 ± 0.5%	70.9 ± 2%	COc1cc(O)cc(O)c1C(=O)/C=C/c1ccc(O)cc1 [Compound 14, 4,4′,6′-trihydroxy-2′-methoxychalcone]	–
–	20.9 ± 2.1%	44.7 ± 1.7%	COc1cc(O)cc2c1C(=O)CC(c1ccc(O)cc1)O2 (stereo not shown) [Compound 15, 4′-7-Dihydroxy-5-methoxyflavanone]	–
